The conditions of data set [1]: human, in vivo; cited from earlier work.
Another data set concerns KH OS and U-2 OS cells. The experiment in a line: DXR effects in OS cells (TUNEL, protein expression). The format is cell-based, human. As for the experimental part:
Sustained silencing of CLU gene expression in OS cells by siRNA results in significant sensitization to apoptosis induced by genotoxic and oxidative stress. Prior to CLU functional assays, we analyzed the DXR effects in OS cells since the drug-related reported effects vary in different cell-types (Gewritz et al., Biochem. Pharmacol. 57: 727-741 (1999)). As the DXR plasma concentration in treated patients fall into a range of 1-2 μM and decline into a range of 0.025-0.25 μM within 1 h (Muller et al, Cancer Chemother. Pharmacol., 32: 379-384 (1993)) cells were treated with 0.35 and 1 μM of DXR. To analyze the extent of the DXR-mediated cell death we scored apoptosis by TUNEL. Attached cells following drug treatment for 24 h underwent significant morphological changes as compared to non-treated control cells. […] On-going apoptosis is also apparent 24 h later, verifying that apoptosis is a dynamic process that continues even after DXR removal from the medium.

Data set [2] has as its system clusterin transcript. The experiment in a line: Clusterin mRNA by Northern blot in OVCAR3 cells. The class given is cell-based, human. The following applies: 1, 10 or 50 nM, two days. The protocol: OVCAR3 ovarian cancer cells were treated once with 1, 10 or 50 nM CLU5, scrambled control or a vehicle only control. An untreated control was also run. After two days, total RNA was extracted and analyzed for clusterin and GAPDH mRNA by Northern blot.

Data set [3] concerns clusterin transcript. The data set is described as follows: Clusterin mRNA by Northern blot in MDA-MB 231 cells. As to conditions: 5, 50 or 100 nM, two days. The format is cell-based, human. The protocol:
MDA-MB 231 human breast cancer cells were transfected with 5, 50 or 100 nM CLU-5 or a scrambled control, or with oligoFECTAMINE™ vehicle alone. Two days after transfection, RNA was extracted and analyzed for clusterin and GAPDH by Northern blotting.

Data set [4] concerns clusterin. The data set is described as follows: Clusterin Western blot in PC3 cells. The following applies: 10, 50 and 100 nM. The format is cell-based, human. The protocol:
8 species of siRNA targeting clusterin were formed as double-stranded RNA from Seq. ID NOs. 1 and 2, 3 and 4, 5 and 6, 7 and 8, 9 and 10, 11 and 12, 13 and 14, and 15 and 16, and labeled as CLU1-CLU 8, respectively. PC3 cells were transfected with various doses (10, 50 and 100 nM) of the 8 species of siRNA or scrambled control. Three days after treatment, proteins were extracted and analyzed by Western blotting for clusterin levels (MW=40 and 60 kDa).
Densitometric measurements were performed after normalization to a vinculin control the blots for cells treated with CLU-5 (Seq ID Nos. 9 and 10). “Oligo” cells were treated with oligoFECTAMINE™ only.

The subject of data set [5] is clusterin transcript. The data set is described as follows: Clusterin mRNA by Northern blot in MCF-7 cells. The class given is cell-based, human. The following applies: 5, 25 or 50 nM, two days. The protocol: MCF-7 human breast cancer cells were transfected with 5, 25 or 50 nM CLU-5 or a scrambled control, or with oligoFECTAMINE™ vehicle alone. Two days after transfection, RNA was extracted and analyzed for clusterin and GAPDH by Northern blotting.

The next data set concerns PC3 cells. The data set is described as follows: PC3 cell viability with siRNA and Taxol, MTT assay. The format is cell-based, human. As to conditions: 25 nM siRNA, then Taxol three days. As for the experimental part:
PC3 cells were treated once with 25 nM human clusterin siRNAs (CLU-3 and CLU-5), a scrambled control, or oligoFECTAMINE™ only. After two days of treatment, the medium was replaced with medium containing various concentrations of Taxol (Paclitaxel). After three days of incubation, cell viability was determined by MTT assay. FIG. 11 summarizes the results.
(In general: Formazan colour is commonly taken as a measure of viable cells.)

Data set [6] deals with clusterin transcript. The experiment in a line: Clusterin transcript by Northern blot in PC3 cells. The class given is cell-based, human. As to conditions: all doses (10, 50 or 100 nM), two days. As for the experimental part:
PC3 cells were treated (1 pulse) with CLU-3 (Seq ID NOs. 5 and 6) or CLU-5 (Seq ID Nos 9 and 10) or with a scrambled control at levels of 10, 50 or 100 nM, or with oligoFECTAMINE™ only. After two days total RNA was extracted and analyzed for clusterin and GADPH by Northern blotting. Densitometric measurement was performed. FIG. 10 presents results of these measurements after normalization to GADPH.

The test system of data set [7] is clusterin. The data set is described as follows: Clusterin Western blot in A549 cells. The class given is cell-based, human. The following applies: 10, 50 and 100 nM. For orientation: Immunoblotting shows a protein as a band on a membrane.
The test system of data set [8] is clusterin transcript. The experiment in a line: Clusterin transcript by Real Time PCR in PC3 cells. The format is cell-based, human. As to conditions: 10, 50 or 100 nM, two days. The protocol:
(§1) PC3 cells were transfected with siRNA at levels of 10, 50 or 100 nM or with 100 nM scrambled control. Two days after transfection, total RNA was extracted and the level of clusterin transcript was quantified by Real Time PCR.
On the technique in general: Real-time PCR tracks product formation cycle by cycle.

The subject of data set [9] is clusterin. The data set is described as follows: Clusterin Western blot in clusterin overexpressing LNCaP/T1 cells. The class given is cell-based, human. The following applies: 10 nM, 1 pulse, three days. The protocol: Clusterin overexpressing LNCaP)/T1 cells were transfected (1 pulse) with 10 nM CLU-5 siRNA or scrambled control. Three days after treatment, the proteins were extracted and analyzed by Western blotting for clusterin.

Data set [10] concerns clusterin. The experiment in a line: Clusterin Western blot in MCF-7 cells. The class given is cell-based, human. As to conditions: 5 and 50 nM, three days. As for the experimental part:
MCF-7 cells were transfected with various doses (5 and 50 nM) of CLU-5 siRNA or scrambled control. Three days after treatment, proteins were extracted and analyzed by Western blotting for clusterin levels (MW=40 and 60 kDa).

The test system of data set [11] is clusterin transcript. The experiment in a line: Clusterin transcript by Real Time PCR in A549 cells. The class given is cell-based, human. The following applies: 10, 50 or 100 nM, two days. The protocol: as §1
The experiment of Example 9 was repeated using A549 cells in place of PC3 cells.

This is an account of results in patent US8759308B2, “RNAi probes targeting cancer-related proteins” (The University of British Columbia, priority 2002, dated 2014).

d = 2'-deoxy (DNA); r = 2'-OH (RNA)

Regarding `COc1cccc2c1C(=O)c1c(O)c3c(c(O)c1C2=O)C[C@@](O)(C(=O)CO)C[C@@H]3O[C@H]1C[C@H](N)[C@H](O)[C@H](C)O1` [DXR], in [1], the plasma concentration is 1000 to 2000 nM. The bcl-2 expression result with KH OS and U-2 OS cells (KH OS and U-2 OS cells) is reported as “no altered expression”. In addition, the “accumulation of p53, p21 and bax” value in the data set with KH OS and U-2 OS cells (OS cell lines) is on record as “found only in U-2 OS cells”. Further, the PARP cleavage entry in the data set with KH OS and U-2 OS cells (OS cells after DXR treatment) is “accompanied by PARP cleavage”. For the same compound, the “apoptosis by TUNEL” value in the data set on KH OS and U-2 OS cells (OS cells, 0.35 and 1 μM DXR, 24 h) is “a significant number of them are TUNEL positive”.

On to “CLU-5: clusterin siRNA, double-stranded RNA from Seq. ID NOs. 9 and 10 (chain 1 AUGAUGAAGACUCUGCUGCTT; chain 2 GCAGCAGAGUCUUCAUCAUTT; sugars from the 5' end r19 d2, backbone not given here)”, for which the “amount of clusterin transcript normalized to GAPDH” value in the data set with clusterin transcript [2] is “Substantial dose dependent reduction”; in the data set with clusterin transcript [3], “Substantial reduction”; with clusterin transcript [5], “Substantial dose-dependent reduction”. For the same compound, the “clusterin by densitometry normalized to vinculin” value in the data set on clusterin [4] and with clusterin [7] was “dose dependent response” each time. Further, the “amount of clusterin (Western blot)” value with clusterin [4] (three days) is listed as “best results”. Also, the “viable cells with siRNA plus Taxol” value in the data set on PC3 cells is “worked in synergy”. Moreover, in the data set on clusterin transcript [6], the “amount of clusterin transcript normalized to GADPH” value is “Reduction in the amount of clusterin transcript”. The “amount of clusterin transcript” value in the data set with clusterin transcript [8] and in the data set on clusterin transcript [11] was “reduction in the amount of clusterin transcript” in each case. Also, the “clusterin detected by Western blot” value in the data set with clusterin [9] is “No clusterin was detected”. Moreover, in the data set with clusterin [10], the “amount of clusterin protein relative to scrambled control” value is given as “reduction in the amount of clusterin protein”.
